1 compound from article PMC8039949, “A novel small-molecule PROTAC selectively promotes tau clearance to improve cognitive functions in Alzheimer-like models” (Theranostics, 2021) can be followed below.

This assay concerns the target T1, human tau (hTau) (Homo sapiens, UniProt P10636).
T1 construct: expressed in transfected cells
The experiment in a line: Tau clearance in HEK293-hTau cells by Western blotting. The format is cell-based. Particulars: HEK293-hTau cells; 10 μM MG132 with 20 μM C004019; 24 h. The method, then: SH-SY5Y human neuroblastoma cells were cultured in 90% DME/F-12 medium (HyClone, SH30023.01) with 10% fetal bovine serum (FBS) (Biological Industries, 04-001-1ACS) and penicillin (100 U/mL)/ streptomycin (100 μg/mL) in a 37 °C incubator with humidified atmosphere of 5% CO2. Human embryonic kidney 293 cells (HEK293) or HEK293 with stable expression of wild-type full-length human tau (termed as HEK293-hTau) were cultured in 90% DMEM/High Glucose medium (HyClone, SH30022.01) containing 10% FBS and 200 μg/mL G418 (ThermoFisher Scientific, 10131027), in a humidified atmosphere of 5% CO2 at 37 °C. Neofect (DNA transfection reagent, TF20121201) was used for plasmids transfection. The cells were placed onto 6-well or 12-well plates. Plasmids (EGFP-hTau or 3xFlag-hTau or the vector), neofect and Opti-MEM medium (Gibco, 31985-070) were made into a mixture in a ratio of 1 μg: 1 μL : 100 μL and then added into each well of the plate. To inhibit proteasome activity, HEK293-hTau cells were cultured with DMEM/High medium containing 20 μM C004019 with or without 10 μM MG132, or the same volume of vehicle (DMSO) for 24 h at 37 °C. To induce tau hyperphosphorylation, SH-SY5Y cells were cultured with DME/F-12 medium containing 10 μM C004019 with or without 1 μM GFX and 1 μM WO for 24 h at 37 °C.
The cells or hippocampal/cortex tissues were homogenized for ~ 30 min on ice in buffer [50 mM Tris·HCl pH 7.4-7.5, 100 mM NaCl, 1% (vol/vol) Triton X-100, 5 mM EDTA, 1:100 PMSF, 1:1,000 protease inhibitor cocktail containing 4-(2-Aminoethyl)-benzenesulfonyl fluoride hydrochloride, aprotinin, bestatin, leupeptin, E-64, and pepstatin A stored at 4 °C], and then centrifuged at 12,000 × g at 4 °C for 20 min. The supernatant was collected and the protein levels were analyzed using bicinchoninic acid (BCA, KF016, Sigma-Aldrich) by following the manufacturer's instruction (served as soluble protein). The pellet was further incubated with 8% (wt/vol) SDS buffer at 4 °C and then treated by ultrasonic wave to reach a complete resuspension. […] Immunoreactive bands were quantitatively analyzed by Image J2x software.
On the technique in general: Immunoblotting shows a protein as a band on a membrane.

Peptide text beside a SMILES is read from it. * marks the point of attachment. Cbz = O=C(OCc1ccccc1)*

T1 sequence (P10636 1-441 isoform P10636-8): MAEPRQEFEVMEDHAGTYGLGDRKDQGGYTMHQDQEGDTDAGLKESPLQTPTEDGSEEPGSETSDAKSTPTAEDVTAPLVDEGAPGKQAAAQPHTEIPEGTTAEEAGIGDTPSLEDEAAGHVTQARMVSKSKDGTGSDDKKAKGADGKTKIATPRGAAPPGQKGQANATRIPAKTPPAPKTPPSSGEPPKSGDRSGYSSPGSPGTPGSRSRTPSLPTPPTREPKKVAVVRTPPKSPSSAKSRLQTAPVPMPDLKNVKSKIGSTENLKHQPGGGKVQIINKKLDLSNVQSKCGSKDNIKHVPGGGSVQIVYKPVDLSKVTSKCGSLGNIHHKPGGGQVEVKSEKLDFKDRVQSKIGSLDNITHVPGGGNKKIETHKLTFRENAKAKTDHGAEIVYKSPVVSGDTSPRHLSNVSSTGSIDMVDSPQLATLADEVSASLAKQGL

For the compound `CC(C)C[C@@H](C=O)NC(=O)[C@H](CC(C)C)NC(=O)[C@H](CC(C)C)NC(=O)OCc1ccccc1` [MG132, reference compound] (Cbz-Leu-Leu-Leu-aldehyde), the “effect on C004019-induced clearance of tau (proteasome inhibition)” value was “abolished”.
